For this data set, the system named is Hep G2 human hepatocellular carcinoma cells. The settings on record: 24 hours, 0.001 to 100 μM, compared to untreated cells. As for the experimental part: Hep G2 cells were treated for 24 hours with increasing concentrations (0.001 to 100 μM) of Eosin Y, or left untreated (CTL).
Hep G2 cells were treated for 24 hours with increasing concentrations (0.001 to 100 μM) of Erythrosine B, or left untreated (CTL). Staurosporine (STS) was used as a positive control inducing cellular mortality.
The toxicity of the photoactivators Eosin Y and Erythrosine B was evaluated by measuring the cytotoxicity of these compounds on human cells. Hep G2 human hepatocellular carcinoma cells with an epithelial morphology were treated for 24 hours with increasing concentrations (0.001 to 100 μM) of Eosin Y or Erythrosine B, and the cellular survival was evaluated.

In the case of `CN[C@@H]1C[C@H]2O[C@@](C)([C@@H]1OC)n1c3ccccc3c3c4c(c5c6ccccc6n2c5c31)C(=O)NC4` [Staurosporine], the cellular viability result is given as “caused a dose-dependent effect”.

(Values after US10758744B2, “Combination of an oxidant and a photoactivator for the wounds” (KLOX TECHNOLOGIES INC., priority 2008, dated 2020).)
